This note sets out measurements from patent US20100222293A1, “MODULATION OF SPERM MOTILITY” (priority 2007, published 2010).

SMILES strings stand for the structures.

The experiment concerns sperm from asthenozoospermic subjects. As to the kind of experiment: Sperm motility parameters after incubation with extracellular ATP (automated cell motility analyzer). Particulars: 2.5 mM ATP, 60 minutes. Format: cell-based, human. As to the method: Semen samples were collected after 3 days of sexual abstinence in sterile containers. After liquefaction at room temperature for 30 minutes, standard seminal parameters were examined according to the WHO laboratory manual [supra]. For sperm movement analysis, a semen aliquot (10 μl) was placed in a Makler chamber, ten different fields per chamber were randomly examined, and at least 100 sperm for each field of the chamber were scored. Percentages of motile sperm and movement characteristics were analysed using an automated analyzer at 37° C. (CellTrack VP110, Motion Analysis Corporation, Palo Alto, Calif., USA). Sperm velocity and kinetic parameters were evaluated for only motile sperm and were expressed as mean values. Standard deviations were calculated and P values of significance were determined by the Student's t-test. The following sperm parameters were determined: curvilinear velocity (VCL) (also referred to as track speed and is the velocity (in μm/sec) of a sperm along individual tracks; straight progressive velocity (VSL) (the average velocity (in μm/sec) measured in a straight line from the beginning to the end of track); amplitude of lateral head displacement (ALH) (mean width (in μm) of sperm head oscillation); and linearity coefficient (LIN=VSL/VCL×100) (the degree (in %) of straightness of the sperm track). To analyze the effects of extracellular ATP on motility parameters of sperm from the asthenozoospermic subjects, sperm samples from the subjects were washed once by the addition of BWW medium (Biggers-Whitten-Whittingham medium; 95 mM NaCl, 4.8 mM KCl, 1.7 mM CaCl2, 1.2 mM KH2PO4, 1.2 MgSO4, 25 NaHCO3, 5.6 mM fructose, 0.25 mM sodium pyruvate, 3.7 ml/l 60% sodium lactate syrup, 10^4 IU/ml penicillin, and 10 mg/ml streptomycin) and centrifugation at 800×g for 10 minutes. After centrifugation and discarding of the supernatant, the sperm pellets were suspended in BWW medium (at a concentration of 10×10^6 sperm/ml), divided into two equivalent aliquots, and allowed to recover for 15 minutes. One aliquot was then incubated at 37° C. with ATP (2.5 mM final concentration from a 100 mM stock solution made by diluting ATP with physiological solution (0.9% NaCl in distilled water) and the second aliquot was incubated at 37° C. with same amount of physiological solution only (as a negative control). After 60 minutes incubation, sperm motility parameters were determined as described above. The effects of extracellular ATP on sperm motility parameters of sperm from subjects with asthenozoospermia after washing from seminal fluid and resuspension in BWW medium (10×10^6 sperm/ml) were examined.

As for `Nc1ncnc2c1ncn2[C@@H]1O[C@H](COP(=O)(O)OP(=O)(O)OP(=O)(O)O)[C@@H](O)[C@H]1O` [ATP, adenosine 5′-triphosphate], the “effect on curvilinear velocity (VCL)” value is listed as “No significant effects” and the “effect on lateral sperm head displacement (ALH)” value is on record as “No significant effects”. The “progressive velocity (VSL)” value (37° C., washed sperm in BWW medium, 27 asthenozoospermic subjects, control 23.81±6.04, p=0.0024) is on record as 28.85±7.27 μm/sec. Also, the “linearity (LIN)” value (37° C., washed sperm in BWW medium, control 29.59±6.25, p=0.0004) is 37.7±7.9.
